Assay results from patent US20140023611A1 (priority 2010, published 2014).

What was measured:
human NaP2b (SLC34A2) = molecular target: T1, human NaP2b (SLC34A2) (Homo sapiens, UniProt O95436); assay: Inhibition of NaP2b-mediated Pi (33P) uptake in transfected HEK293 cells, human NaP2b; type: cell-based; conditions: for IC50: read-out: pIC50 range for human NaP2b (converted)
T1 construct: host or cells: HEK293
T1 sequence (O95436 1-690): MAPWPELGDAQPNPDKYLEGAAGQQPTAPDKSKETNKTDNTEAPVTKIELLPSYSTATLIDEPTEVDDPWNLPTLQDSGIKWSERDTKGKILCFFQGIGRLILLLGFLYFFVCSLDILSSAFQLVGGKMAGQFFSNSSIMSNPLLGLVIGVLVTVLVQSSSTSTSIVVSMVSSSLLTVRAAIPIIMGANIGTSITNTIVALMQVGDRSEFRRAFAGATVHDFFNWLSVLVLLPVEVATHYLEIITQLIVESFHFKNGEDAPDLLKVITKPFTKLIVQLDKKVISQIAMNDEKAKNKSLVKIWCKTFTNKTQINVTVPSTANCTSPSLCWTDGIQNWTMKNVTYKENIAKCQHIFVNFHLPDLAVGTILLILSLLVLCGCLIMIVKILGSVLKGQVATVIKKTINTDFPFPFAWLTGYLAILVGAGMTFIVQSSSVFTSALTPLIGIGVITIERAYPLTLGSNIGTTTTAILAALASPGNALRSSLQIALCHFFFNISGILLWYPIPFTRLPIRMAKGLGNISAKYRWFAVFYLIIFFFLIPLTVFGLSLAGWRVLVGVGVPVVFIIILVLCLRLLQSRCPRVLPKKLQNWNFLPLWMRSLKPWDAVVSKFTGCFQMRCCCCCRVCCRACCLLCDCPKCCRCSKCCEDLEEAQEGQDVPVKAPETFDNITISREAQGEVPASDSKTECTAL
Procedure, shortened: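 Uptake of 33P-phosphate (100 uM KH2PO4 carrier, sodium vs choline buffer, pH 7.4) measured after 3-30 min at room temperature, with test compound at twelve concentrations from 0.1 nM to 30 uM in duplicate. Cells were HEK293 transfected with mutated human NaP2b (Thr insertion after 37, N39D) and treated with a PiT-silencing agent. pIC50 values from scintillation counts.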

[1] = Stability of compounds in simulated intestinal fluid (SIF); type: in vitro ADME; conditions: simulated intestinal fluid (3 mg/mL pancreatin), incubation time 6 hr, relative to t=0
Procedure, shortened: (§1)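 Compounds at […] were incubated 3 or 6 hr in USP simulated gastric fluid with 3 mg/mL pepsin or simulated intestinal fluid with 3 mg/mL pancreatin. Remaining compound was quantified by HPLC-UV or HPLC-MS peak area % and reported as percent of the t=0 level in the same medium.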

[2] = Stability of compounds in simulated gastric fluid (SGF); type: in vitro ADME; conditions: simulated gastric fluid (3 mg/mL pepsin), incubation time 6 hr, relative to t=0
Procedure, shortened: as §1

rat NaP2b (SLC34A2) = molecular target: T2, rat NaP2b (SLC34A2) (Rattus norvegicus, UniProt Q9JJ09); assay: Inhibition of NaP2b-mediated Pi (33P) uptake in transfected HEK293 cells, rat NaP2b; type: cell-based; conditions: 33P Pi uptake, 0.1 mM phosphate, value given as pIC50 range
T2 construct: host or cells: HEK293
T2 sequence (Q9JJ09 1-695): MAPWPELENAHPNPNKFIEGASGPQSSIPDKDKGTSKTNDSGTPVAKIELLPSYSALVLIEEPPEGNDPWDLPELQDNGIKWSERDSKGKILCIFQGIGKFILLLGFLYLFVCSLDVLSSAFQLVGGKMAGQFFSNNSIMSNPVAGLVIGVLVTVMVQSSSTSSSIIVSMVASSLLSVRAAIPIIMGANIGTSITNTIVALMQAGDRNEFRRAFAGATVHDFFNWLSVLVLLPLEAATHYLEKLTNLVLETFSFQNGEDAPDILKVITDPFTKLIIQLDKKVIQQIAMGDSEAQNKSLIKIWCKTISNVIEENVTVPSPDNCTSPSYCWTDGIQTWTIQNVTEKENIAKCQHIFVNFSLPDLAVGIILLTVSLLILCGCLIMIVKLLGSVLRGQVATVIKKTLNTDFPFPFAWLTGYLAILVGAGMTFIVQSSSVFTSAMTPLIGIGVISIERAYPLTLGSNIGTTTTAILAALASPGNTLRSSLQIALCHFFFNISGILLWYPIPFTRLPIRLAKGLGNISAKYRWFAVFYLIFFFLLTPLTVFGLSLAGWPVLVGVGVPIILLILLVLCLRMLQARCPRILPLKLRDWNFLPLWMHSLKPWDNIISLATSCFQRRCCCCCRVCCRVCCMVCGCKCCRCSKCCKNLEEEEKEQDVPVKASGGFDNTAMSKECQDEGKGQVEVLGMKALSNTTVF
Procedure, shortened: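 The cells transiently expressed NaP2b after Lipofectamine transfection. Each compound was run in duplicate over twelve concentrations, 0.1 nM–30 uM.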

[3] = Determination of compound Cmax and AUC after oral gavage (plasma LC-MS/MS); type: in vivo, Sprague-Dawley rats; conditions: Sprague-Dawley, rat, plasma, po, Structure (I) examples, Table 15, actual oral dose 3-15 mg/kg, plasma 0.5-4 h
Procedure, shortened: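 Plasma exposure measured by LC-MS/MS after acetonitrile precipitation with internal standard, quantified against a standard curve made in plasma. Compound given orally by gavage to Sprague-Dawley rats at nominal 2.5 or 10 mg/kg, with K2EDTA plasma sampled at 0.5, 1, 2 and 4 h.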

| Molecule | pIC50 range for human NaP2b (human NaP2b (SLC34A2); 33P Pi uptake, transfected HEK293 cells, 0.1 mM phosphate, value given as pIC50 range) | % remaining, SIF [1] | % remaining, SGF [2] | pIC50 range for rat Nap2b (rat NaP2b (SLC34A2)) | IC50 (human NaP2b (SLC34A2)) [nM] | IC50 (rat NaP2b (SLC34A2)) [nM] | AUC [3] [ng·h/mL] | Cmax [3] [ng/mL] |
| --- | --- | --- | --- | --- | --- | --- | --- | --- |
| 1-(3-(4-(diethylamino)-2-(4-(3-(trifluoromethyl)benzylcarbamoyl)pyridin-2-yl)phenylcarbamoyl)phenyl)-2,5,8,11,14,17-hexaoxanonadecan-19-yl 2,5,8,11,14,17,20-heptaoxadocosan-22-ylcarbamate [Example 174] | >6.0 | >80% | >80% | 5.1-6.0 | – | – | – | – |
| O=C(O)c1cccc(SCc2cccc(C(=O)Nc3ccc(Cl)cc3-c3cc(C(=O)NCc4cccc(C(F)(F)F)c4)ccn3)c2)c1 [Example 8.25, 3-(3-(4-chloro-2-(4-(3-(trifluoromethyl)benzylcarbamoyl)pyridin-2-yl)phenylcarbamoyl)benzylthio)benzoic acid] | – | >80% | >80% | – | < 1000 | 1000 to 7940 | > 50 | < 30 |
| CCCN(CCC)c1ccc(NC(=O)c2cccc(C(=O)N(C)CCOCCOCCOCCC(=O)O)c2)c(-c2cc(C(=O)NCc3cccc(C(F)(F)F)c3)ccn2)c1 [Example 117] | – | >80% | >80% | – | 1000 to 7940 | 1000 to 7940 | – | – |
| CCN(CC)c1ccc(NC(=O)c2cccc(COCCOCCOCCOCCOCCOCCOC(=O)NCCN3CCOCC3)c2)c(-c2cc(C(=O)NCc3cccc(C(F)(F)F)c3)ccn2)c1 [Example 169, 1-(3-(4-(diethylamino)-2-(4-(3-(trifluoromethyl)benzylcarbamoyl)pyridin-2-yl)phenylcarbamoyl)phenyl)-2,5,8,11,14,17-hexaoxanonadecan-19-yl 2-morpholinoethylcarbamate] | – | 60-80% | >80% | – | < 1000 | < 1000 | – | – |
| CCN(CC)c1ccc(NC(=O)c2cccc(COCCOCCOCCOCCOCCOCCOC(=O)N(C)CCN3CCOCC3)c2)c(-c2cc(C(=O)NCc3cccc(C(F)(F)F)c3)ccn2)c1 [Example 170, 1-(3-(4-(diethylamino)-2-(4-(3-(trifluoromethyl)benzylcarbamoyl)pyridin-2-yl)phenylcarbamoyl)phenyl)-2,5,8,11,14,17-hexaoxanonadecan-19-yl methyl(2-morpholinoethyl)carbamate] | – | 60-80% | >80% | – | < 1000 | 1000 to 7940 | – | – |
| CCN(CC)c1ccc(NC(=O)c2cccc(COCCOCCOCCOCCOCCOCCOC(=O)N3CCC(CCOCCO)CC3)c2)c(-c2cc(C(=O)NCc3cccc(C(F)(F)F)c3)ccn2)c1 [Example 171, 1-(3-(4-(diethylamino)-2-(4-(3-(trifluoromethyl)benzylcarbamoyl)pyridin-2-yl)phenylcarbamoyl)phenyl)-2,5,8,11,14,17-hexaoxanonadecan-19-yl 4-(2-(2-hydroxyethoxy)ethyl)piperidine-1-carboxylate] | – | >80% | >80% | – | < 1000 | 1000 to 7940 | – | – |
| CCN(CC)c1ccc(NC(=O)c2cccc(COCCOCCOCCOCCOCCOCCOC(=O)N(CCO)CCO)c2)c(-c2cc(C(=O)NCc3cccc(C(F)(F)F)c3)ccn2)c1 [Example 172, 1-(3-(4-(diethylamino)-2-(4-(3-(trifluoromethyl)benzylcarbamoyl)pyridin-2-yl)phenylcarbamoyl)phenyl)-2,5,8,11,14,17-hexaoxanonadecan-19-yl bis(2-hydroxyethyl)carbamate] | – | >80% | >80% | – | < 1000 | 1000 to 7940 | – | – |
| COCCOCCOCCOCCOCCOCCOCCOCCOCc1cccc(C(=O)Nc2ccc(OC3CCC3)cc2-c2cc(C(=O)NCc3cccc(C(F)(F)F)c3)ccn2)c1 [Example 202, 2-(2-(3-(2,5,8,11,14,17,20,23,26-nonaoxaheptacosyl)benzamido)-5-cyclobutoxyphenyl)-N-(3-(trifluoromethyl)benzyl)isonicotinamide] | – | >80% | >80% | – | < 1000 | 1000 to 7940 | – | – |
| COCCOCCOCCOCCOCCOCCOCCOCCOCc1cccc(C(=O)Nc2ccc(OC3CCC3)cc2-c2cc(C(=O)N[C@H]3CCCc4ccccc43)ccn2)c1 [Example 205, (S)-2-(2-(3-(2,5,8,11,14,17,20,23,26-nonaoxaheptacosyl)benzamido)-5-cyclobutoxyphenyl)-N-(1,2,3,4-tetrahydronaphthalen-1-yl)isonicotinamide] | – | >80% | >80% | – | < 1000 | < 1000 | – | – |
| COCCOCCOCCOCCOCCOCCOCCOCCNC(=O)CCOCCOCCOCCOCCCc1cccc(C(=O)Nc2ccc(N3CCCCC3)cc2-c2cc(C(=O)NCc3cccc(C(F)(F)F)c3)ccn2)c1 [Example 275] | – | >80% | >80% | – | 1000 to 7940 | 1000 to 7940 | – | – |
| O=C(O)CCOCCOCCOCCOCCCc1cccc(C(=O)Nc2ccc(OC3CCC3)cc2-c2cc(C(=O)N[C@H]3CCCc4ccccc43)ccn2)c1 [Example 285, (S)-16-(3-((4-cyclobutoxy-2-(4-((1,2,3,4-tetrahydronaphthalen-1-yl)carbamoyl)pyridin-2-yl)phenyl)carbamoyl)phenyl)-4,7,10,13-tetraoxahexadecan-1-oic acid] | – | >80% | 60-80% | – | – | < 1000 | < 50 | < 30 |
| CCN(CC)c1ccc(NC(=O)c2cccc(C(=O)N(C)CCN(CCOC)CCOCCOCCOCCOCCOCCOCCOC)c2)c(-c2cc(C(=O)N[C@H]3CCCc4ccccc43)ccn2)c1 [Example 328, (S)—N1-(4-(diethylamino)-2-(4-(1,2,3,4-tetrahydronaphthalen-1-ylcarbamoyl)pyridin-2-yl)phenyl)-N3-(23-(2-methoxyethyl)-2,5,8,11,14,17,20-heptaoxa-23-azapentacosan-25-yl)-N3-methylisophthalamide] | – | >80% | >80% | – | 1000 to 7940 | 1000 to 7940 | – | – |
| COCCOCCOCCOCCOCCOCCOCCN(C)CCN(C)C(=O)c1cccc(C(=O)Nc2ccc(N3CCCCC3)cc2-c2cc(C(=O)N[C@H]3CCCc4ccccc43)ccn2)c1 [Example 333, (S)—N^1-Methyl-N^1-(23-methyl-2,5,8,11,14,17,20-heptaoxa-23-azapentacosan-25-yl)-N3-(4-(piperidin-1-yl)-2-(4-(1,2,3,4-tetrahydronaphthalen-1-ylcarbamoyl)pyridin-2-yl)phenyl)isophthalamide] | – | >80% | >80% | – | – | 1000 to 7940 | < 50 | < 30 |
